Source: PMC12627862, “Therapeutic targeting of endothelial calcium signaling accelerates the resolution of lung injury” (Signal Transduction and Targeted Therapy, 2025)
Where two headings read alike, the source gives them in different places. Starred links: 1 amine or outer side, 2 acyl side, 3 side chain; linkers in the order of their positions; H or OH if unused. Positions of bridges follow the written chain, without caps; N, C: chain ends. Non-standard residues stand in square brackets, D forms with d. Residues, ends and D or L forms follow the SMILES beside them. ξ: configuration not given here. X2 = C[C@@](CCCCC=[*:3])(N[*:1])C(=O)[*:2]; Oic = O=C(O)[C@@H]1C[C@@H]2CCCC[C@@H]2N1; GABOB(3R) = O=C(C[C@@H](O)CN[*:1])[*:2]; d(tBuAla) = CC(C)(C)C[C@@H](N)C(=O)O; dVal(3-OH) = CC(C)(O)[C@@H](N)C(=O)O; tBuAla = CC(C)(C)C[C@H](N)C(=O)O; ξVal(3-OH) = CC(C)(O)C(N)C(=O)O; R5 = C=CCCC[C@@](C)(N)C(=O)O; X1 = O=C(CC(O)CN[*:1])[*:2]; 4Amb = NCc1ccc(C(=O)O)cc1

Assays:
[1] = Stability at various storage conditions; type: physicochemical; conditions: for amount of peptide remaining after storage: phosphate-buffered sterile saline, 8 days, LC-MS/MS
Procedure: Stability assay of peptides in various storage conditions. Peptides were dissolved and stored in phosphate-buffered sterile saline at -20, 4, 37, and 60°C for 8 days. The amount of peptide remaining after the study was analyzed by LC-MS/MS.
Supplementary Table 5. Stability of selected compounds at various storage conditions. Preliminary accelerated storage stability at various temperature conditions for the selected inhibitors was tested in phosphate-buffered sterile saline at -20 °C, 4 °C, 37 °C and 60 °C for 8 days. See also Figures 1 and 2.

HLMVECs = assay: Transendothelial electrical resistance (TEER) assay; type: cell-based, human; conditions: 1 µM, 1 hour pretreatment, 50 nM α-thrombin; to the same extent as EBIN
[2] = test system: human primary microvascular lung endothelial cells (HLMVECs); assay: Peptide uptake in endothelial cells; type: cell-based
Procedure: We next analyzed the cell-penetrating properties of the selected compounds, hereafter referred to as vascular therapeutics (VT). The rate of uptake of 5’6-FAM (fluorescein)-labeled compounds by human primary microvascular lung endothelial cells (HLMVECs) was determined via confocal fluorescence live-cell imaging. FAM-labeled Myr-EBIN[13] and fluorescein alone were used as positive and negative controls, respectively. The t½ uptake and maximal uptake were determined from changes in the integrated fluorescence intensity over a 30 min period (Fig. 2a and Supplementary Fig. 1a). […] Like Myr-EBIN, compounds VT-107, -108 and -109 presented the highest uptake rates of 92.5 ± 5.0%, 82.5 ± 2.8% and 94.7 ± 4.9%, respectively, whereas the linear compound VT-101 was taken up less efficiently, with an average uptake of 58.4 ± 2.7% (Fig. 2a). […] The t½ uptake, however, varied between the tested compounds (Fig. 2b). The stapled compounds presented the shortest t½ uptake, whereas the linear compounds presented the longest t½ (Fig. 2b).
Peptide uptake in endothelial cells. The rate of peptide uptake by primary human microvascular endothelial cells was measured using 5’6FAM (fluorescein)-labeled peptides and confocal fluorescence live-cell imaging, with fluorescein alone used as a negative control. Changes in intracellular fluorescence for each peptide were monitored over time, and saponin, a detergent, was added at the end of the experiment to induce full uptake of the tested peptides by endothelial cells. The fluorescence intensity inside the cells was tracked over time, and the half-time uptake (t1/2) and maximum uptake were calculated.

SARS-CoV-2 (WA1/2020) = type: in vivo, mouse
full-length EB3 = full-length EB3 (Homo sapiens, UniProt Q9UPY8); assay: STD-NMR binding to EB3 (amplification factor); conditions: versus the linear precursor
Text: To screen these drug-like compounds for binding to full-length EB3, we employed the saturation transfer difference (STD)-NMR approach as a cell-free throughput screening platform. We were unable to use other methods, such as isothermal titration calorimetry, because of the nature of the EB3 dimer, which dynamically exchanges chains within the dimer—a process influenced by the binding of the C-terminus to its partners, such as the tested peptides. To analyze the STD-NMR data quantitatively, we established the amplification factor (AMPSTD), a change in signal intensity upon saturation that is normalized to ligand abundance (Fig. 1a), as a measure of the binding affinity of the compounds to the target protein EB3. […]
Fig. 1 NMR-based characterization of EB3 inhibitors. a The saturation transfer difference (STD) NMR approach was used to profile peptide binding to EB3. […] The amplification ratio was calculated as follows: AMPSTD = ISTD/INO SAT x {L}, where ISTD is the highest STD signal intensity measured with saturation; INO SAT is the intensity measured for the same signal without saturation; and {L} is the peptide concentration. c ^1H-^15N HSQC spectrum of ^15N-enriched EB3_200-281 alone (black) and in the presence of a 1:1 molar ratio of 109 (cyan). […]

full-length EB3, sequence (Q9UPY8 whole entry, species assumed): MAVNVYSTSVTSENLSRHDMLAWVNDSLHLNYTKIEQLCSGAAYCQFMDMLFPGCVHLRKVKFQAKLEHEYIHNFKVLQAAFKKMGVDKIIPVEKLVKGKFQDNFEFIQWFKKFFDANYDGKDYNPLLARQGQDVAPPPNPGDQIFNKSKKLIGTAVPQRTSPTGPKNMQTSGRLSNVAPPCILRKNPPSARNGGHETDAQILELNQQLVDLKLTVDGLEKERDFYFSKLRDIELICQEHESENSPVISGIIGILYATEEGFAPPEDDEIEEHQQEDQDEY

Structure (SMILES): CC(C)(C)C[C@@H]1NC(=O)[C@](C)(NC(=O)c2ccc(CNC(=O)[C@H](N)C(C)(C)O)cc2)CCC/C=C\CCCC[C@@](C)(C(=O)N[C@H](CC(C)(C)C)C(=O)O)NC(=O)CC(O)CNC(=O)[C@@H]2C[C@@H]3CCCC[C@@H]3N2C1=O (stereo partly drawn) [compound 108, (2R)-2-((8S,18R,21S,23aS,27aS,28aS,Z)-18-(4-(((R)-2-amino-3-hydroxy-3-methylbutanamido)methyl)benzamido)-4-hydroxy-8,18-dimethyl-21-neopentyl-1,6,19,22-tetraoxo-1,2,3,4,5,6,7,8,9,10,11,12,15,16,17,18,19,20,21,22,23a,24,25,26,27,27a,28,28a-octacosahydro-[1,4,7,12]tetraazacyclotetracosino[4,5-a]indole-8-carboxamido)-4,4-dimethylpentanoic acid] (H-[dVal(3-OH)][4Amb][R5][tBuAla][Oic][X1][X2][d(tBuAla)]-OH; staple (Z) 3-7)
- amount of peptide remaining after storage ([1]; 4 °C): 102%
- amount of peptide remaining after storage ([1]; 37 °C): 104%
- amount of peptide remaining after storage ([1]; 60 °C): 104%
- amount of peptide remaining after storage ([1]; -20 °C): 104%
- storage stability ([1]; various storage and temperature conditions): stable
- α-thrombin-induced changes in TEER (HLMVECs): attenuated
- uptake, percentage of the maximal values obtained following saponin treatment ([2]; 5’6-FAM-labeled compounds, HLMVECs, confocal live-cell imaging over 30 min, mean ± SEM, n = 16–45 cells per group): 82.5 ± 2.8%
- half-time uptake t1/2 ([2]; 5’6-FAM-labeled compounds, HLMVECs, confocal live-cell imaging, n = 3 independent experiments): 0.36 ± 0.12 min
- penetration of the cell membrane ([2]; 5’6-FAM-labeled compounds, HLMVECs, no cell internalization signal): able to penetrate the cell membrane without the addition of a cell internalization signal

Structure (SMILES): CC(C)(C)C[C@@H]1NC(=O)C[C@@H](O)CNC(=O)[C@@H]2C[C@@H]3CCCC[C@@H]3N2C(=O)[C@H](CC(C)(C)C)NC(=O)c2ccc(cc2)CNC(=O)C(C(C)(C)O)NC(=O)[C@@H](Cc2ccccc2)NC1=O (stereo partly drawn) [compound 109, (1^2S,1^3aS,1^7aS,3S,10S,13R,16S,20R)-13-benzyl-20-hydroxy-10-(2-hydroxypropan-2-yl)-3,16-dineopentyl-1^2,1^3,1^3a,1^4,1^5,1^6,1^7,1^7a-octahydro-1^1H-4,8,11,14,17,22-hexaaza-1(1,2)-indola-6(1,4)-benzenacyclotricosaphane-2,5,9,12,15,18,23-heptaone.] (cyclo([4Amb][tBuAla][Oic][GABOB(3R)][tBuAla][dF][ξVal(3-OH)]))
- lung injury (ALI score) (SARS-CoV-2 (WA1/2020); 250 nmol/kg bw from 1 dpi): promoted the resolution of lung injury by day 7
- NFATC2 nuclear accumulation in endothelial and immune cells (SARS-CoV-2 (WA1/2020); 250 nmol/kg bw, 7 dpi): reduced NFATC2 nuclear accumulation
- VE-cadherin junctions (SARS-CoV-2 (WA1/2020); 250 nmol/kg bw, 7 dpi): reannealed junctions
- number of infiltrating monocytes and neutrophils in the BALF (SARS-CoV-2 (WA1/2020); 2 µmol/kg bw i.v.): significantly reduced
- blood-brain barrier (BBB) integrity, cerebral cortex (SARS-CoV-2 (WA1/2020); 2 µmol/kg bw i.v., 5 dpi): restored BBB integrity
- storage stability [1]: stable
- α-thrombin-induced changes in TEER (HLMVECs): attenuated
- improvement of EB3 binding by head-to-tail cyclization (full-length EB3): approximately 4 fold
- half-time uptake t1/2 [2]: 3.42 ± 0.01 min
- penetration of the cell membrane [2]: able to penetrate the cell membrane without the addition of a cell internalization signal
